In US10336788B2, “Inhibition of cardiac fibrosis in myocardial infarction” (Moerae Matrix, Inc., priority 2014, dated 2019):
No end group written: not given here.

How the values were obtained:
[1] = test system: HL1 cells; experiment: Caspase 3/7 activity in HL1 cells challenged with 1% hypoxia; type: cell-based, mouse; details: 100 μM, 12 hours
Protocol: (§1) H9C2 is a myoblast cell line derived from rat myocardium obtained from ATCC® (CRL-1446, ATCC, Manassas, Va.) and cultured according to the recommended protocols. Briefly, cells were maintained at 37° C. with 5% CO2 in DMEM supplemented with 10% fetal bovine serum and antibiotics (100 U/ml penicillin, […] streptomycin) and split at a ratio of 1:4 using 0.05% trypsin every 36 hours. […]
(§2) Cells were rinsed in PMS and grown in DMEM (cat. #11966-025, Gibco) for 2 hours prior to initiating hypoxia (simulated ischemia). […] Three different time points were adopted for each of the three cell lines according to the severity of cell death under hypoxia determined by LDH release: for H9C2 cell line: 8 hr; 16 hr; 24 hr; for HL-1 cell line: 4 hr; 8 hr; 12 hr; for cardiac fibroblast cell line: 16 hr; 32 hr; 48 hr.
(§3) Cell death was first determined using an LDH release assay (cat. #630117, Clontech), according to the manufacturer's instructions. […] Caspase 3/7 activity was next determined using a commercial Caspase 3/7 activity kit (Cat. #G8091, Promega, Madison, Wis. 53711) in a 384 well plate (Cat. #781903, Greiner bio-one) according to the manufacturer's instructions. […] The resulting cell lysates (25 μl, with 0.6 ug total protein) and Caspase-Glo 3/7 Reagent were added to each well in a 1:1 ratio and the luminescence was read (CLARIOstar, BMG LABTECH GmbH). […]

[2] = test system: primary cardiac fibroblasts; experiment: Caspase 3/7 activity in primary cardiac fibroblasts challenged with 1% hypoxia; type: cell-based, rat; details: 100 μM, 16 and 32 hours of hypoxia
Protocol: as §1, §2, §3

[3] = test system: MK2; experiment: Immunoblot analysis of MK2 activity (HNRNPA0, total MK2, p-MK2) in primary cardiac fibroblasts; type: cell-based, rat
Protocol: Cells were rinsed in PMS and grown in DMEM (cat. #11966-025, Gibco) for 2 hours prior to initiating hypoxia (simulated ischemia). Hypoxia was induced by placing cells in a hypoxia chamber ([…] 150i, Thermo Scientific) in a mixture of 5% CO2/95% N2 to attain a 1% oxygen concentration, according to the manufacturer's instruction. […] The MMI-0100 peptide was added to the cells at the start of the ischemia time. Cells were cultured in 12 well plates. At the time of performing the experiments, all cultures were approximately 70-90% confluent. Three different time points were adopted for each of the three cell lines according to the severity of cell death under hypoxia determined by LDH release: for H9C2 cell line: 8 hr; 16 hr; 24 hr; for HL-1 cell line: 4 hr; 8 hr; 12 hr; for cardiac fibroblast cell line: 16 hr; 32 hr; 48 hr.
The left over cell lysates from the Caspase activity assay were used for the Western blots. […] After blocking with recommended blocking reagents for 1 h at the room temperature, the membranes were incubated overnight at 4° C. with primary antibodies in TBS-T, and then incubated with secondary antibodies conjugated with HRP in TBS-T. HNRNPA0, MAPK2, and phospho-MAPK2 proteins were detected using anti-HNRNPA0 (cat. #HPA036569, 1:1000, Sigma-Aldrich), anti-MAPKAPK2 (cat. #SAB4300553, Sigma-Aldrich), and anti-phospho-MAPKAPK2 (cat. #SAB4300241, 1:1000, Sigma-Aldrich). […]

[4] = test system: bleomycin-induced pulmonary fibrosis; details: Vittal et al. 2013; cited from earlier work

With YARAAARQARAKALARQLGVAA [MMI-0100] the “caspase 3/7 activity” value [1] was “inhibited”, the “caspase 3/7 activity” value [2] was “significantly enhanced” and the “protein levels of MK2 and p-MK2” value ([3]; compared to hypoxia alone) was “did not significantly differ”. The “MK2 activity, as measured by HNRNPA0 protein levels” value ([3]; hypoxia, 16, 32, or 48 hours) was “did not change” and the “inflammation and fibrosis in bleomycin-induced pulmonary fibrosis” value [4] was “inhibits inflammation and fibrosis”.
